According to BindingDB's records for doi:10.1016/j.bmc.2006.10.028 (Kirin Brewery, 2006):

assay: Inhibition of MCP1-induced chemotaxis in U937 cells overexpressing CCR2

SMILES	IC50 [µM]
Clc1ccccc1CN1CCC(Nc2cccc3cnccc23)C1 (stereo unspecified) [N-[1-(2-chlorobenzyl)-3-pyrrolidyl]-N-(5-isoquinolyl)amine]	17
Nc1ccccc1CN1CCC(Nc2cccc3cnccc23)C1 (stereo unspecified) [N-[1-(2-aminobenzyl)-3-pyrrolidyl]-N-(5-isoquinolyl)amine]	14
Nc1cccc(CN2CC[C@H](Nc3cccc4cnccc34)C2)c1 [(3S)-N-[1-(3-aminobenzyl)-3-pyrrolidyl]-N-(5-isoquinolyl)amine]	30
Clc1ccc(CN2CCC(Nc3cccc4cnccc34)C2)cc1 (stereo unspecified) [N-(1-(4-chlorobenzyl)pyrrolidin-3-yl)isoquinolin-5-amine]	11
Fc1ccc(CN2CCC(Nc3cccc4cnccc34)C2)cc1 (stereo unspecified) [N-[1-(4-fluorobenzyl)-3-pyrrolidyl]-N-(5-isoquinolyl)amine]	22
Nc1ccc(CN2CCC(Nc3cccc4cnccc34)C2)cc1 (stereo unspecified) [N-(1-(4-aminobenzyl)pyrrolidin-3-yl)isoquinolin-5-amine]	15
Fc1cccc(F)c1CN1CCC(Nc2cccc3cnccc23)C1 (stereo unspecified) [N-(1-(2,6-difluorobenzyl)pyrrolidin-3-yl)isoquinolin-5-amine]	10
Clc1ccc(CN2CCCC(Nc3cccc4cnccc34)C2)cc1 (stereo unspecified) [N-(1-(4-chlorobenzyl)piperidin-3-yl)isoquinolin-5-amine]	23
Nc1cccc(CN2CC[C@@H](Nc3cccc4cnccc34)C2)c1 [(3R)-N-[1-(3-aminobenzyl)-3-pyrrolidyl]-N-(5-isoquinolyl)amine]	1
Nc1cccc(CN2CCC(Nc3cccc4cnccc34)C2)c1 (stereo unspecified) [N-(1-(3-aminobenzyl)pyrrolidin-3-yl)isoquinolin-5-amine]	20
Clc1cccc(CN2CCC(Nc3cccc4cnccc34)C2)c1 (stereo unspecified) [N-(1-(3-chlorobenzyl)pyrrolidin-3-yl)isoquinolin-5-amine]	14
